{"source": "patent US20220016115A1", "about": "“USP19 INHIBITORS FOR USE IN THERAPY” (ALMAC DISCOVERY LIMITED, priority 2018, published 2022)", "data": [{"target": "T1, USP19 (Homo sapiens, UniProt O94966)", "T1 sequence (O94966 1-1318)": "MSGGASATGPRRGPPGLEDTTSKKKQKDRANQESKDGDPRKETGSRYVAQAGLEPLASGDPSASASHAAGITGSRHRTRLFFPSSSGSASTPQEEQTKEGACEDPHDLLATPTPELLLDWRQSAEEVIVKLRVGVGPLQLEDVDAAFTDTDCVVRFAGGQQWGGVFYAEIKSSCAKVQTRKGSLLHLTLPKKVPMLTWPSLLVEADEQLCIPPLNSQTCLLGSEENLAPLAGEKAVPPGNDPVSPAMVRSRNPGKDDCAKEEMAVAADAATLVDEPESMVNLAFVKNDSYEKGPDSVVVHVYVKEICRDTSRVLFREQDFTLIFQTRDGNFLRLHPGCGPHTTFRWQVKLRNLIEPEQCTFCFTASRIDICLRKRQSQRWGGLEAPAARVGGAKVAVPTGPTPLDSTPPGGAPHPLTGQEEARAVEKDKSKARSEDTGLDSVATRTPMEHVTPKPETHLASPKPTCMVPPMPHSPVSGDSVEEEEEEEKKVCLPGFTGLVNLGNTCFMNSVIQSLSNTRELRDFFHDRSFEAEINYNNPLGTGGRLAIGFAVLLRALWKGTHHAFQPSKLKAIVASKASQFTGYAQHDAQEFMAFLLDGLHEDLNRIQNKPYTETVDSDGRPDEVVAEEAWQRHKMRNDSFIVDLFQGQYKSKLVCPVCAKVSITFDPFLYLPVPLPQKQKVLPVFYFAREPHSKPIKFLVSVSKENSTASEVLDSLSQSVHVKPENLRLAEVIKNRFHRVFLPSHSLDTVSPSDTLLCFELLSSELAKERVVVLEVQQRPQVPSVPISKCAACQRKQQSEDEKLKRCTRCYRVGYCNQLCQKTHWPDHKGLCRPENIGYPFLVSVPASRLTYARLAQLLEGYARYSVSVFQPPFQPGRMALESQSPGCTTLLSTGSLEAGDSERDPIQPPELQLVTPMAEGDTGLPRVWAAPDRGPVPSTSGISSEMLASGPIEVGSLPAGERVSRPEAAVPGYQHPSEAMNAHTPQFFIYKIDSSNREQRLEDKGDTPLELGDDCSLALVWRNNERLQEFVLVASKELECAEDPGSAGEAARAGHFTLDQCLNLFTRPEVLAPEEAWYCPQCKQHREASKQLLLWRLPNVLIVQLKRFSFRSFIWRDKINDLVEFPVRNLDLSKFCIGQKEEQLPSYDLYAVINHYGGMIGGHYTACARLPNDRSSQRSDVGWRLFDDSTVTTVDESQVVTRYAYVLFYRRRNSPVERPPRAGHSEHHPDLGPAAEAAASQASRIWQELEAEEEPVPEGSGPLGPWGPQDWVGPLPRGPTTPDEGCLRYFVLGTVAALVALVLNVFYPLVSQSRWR", "assay": "USP19 fluorescence polarisation (FP) homogeneous assay", "type": "biochemical", "design": "Full-length USP19 was purchased from Boston Biochem (E-576); purchased Boston Biochem E-576", "settings": "Ubiquitin-Lys-TAMRA substrate, full-length USP19 2.5 nM, average of at least two duplicate experiments", "protocol": "Unless otherwise stated, all other reagents were purchased from Sigma. Enzymatic reactions were conducted in black flat bottom polystyrene 384-well plates (Nunc) and 30 μL total volume. […] Inhibitors were stored as 10 mM DMSO stocks in an inert environment (low humidity, dark, low oxygen, room temperature) using the Storage Pod System and serial dilutions were prepared in buffer just prior to the assay (from 200 μM to 2 μM, 8-18 data point curve). Following incubation at RT for 30 min, the enzymatic reactions were initiated by dispensing the Ub substrate (500 nM, 10 μL). FP was measured every 15 min over a period of 90 min (within the linear range of the assay) using a Synergy 4 plate reader (BioTek) exciting at 530 nm and measuring the amount of parallel and perpendicular light at 575 nm. The FP signal was subsequently normalised to the no compound control.", "units": {"IC50": "nM"}, "values": [{"molecule": "C[C@H](CC1CCCCC1)C(=O)N1CC[C@@](O)(Cn2cc(C(=O)N3CCCC3)c(-c3ccccc3)cc2=O)C(C)(C)C1", "note": "[Example 123, 1-(((S)-1-((R)-3-Cyclohexyl-2-methylpropanoyl)-4-hydroxy-3,3-dimethylpiperidin-4-yl)methyl)-4-phenyl-5-(pyrrolidine-1-carbonyl)pyridin-2(1H)-one]", "IC50": "< 500"}, {"molecule": "C[C@H](CC1CCCCC1)C(=O)N1CC[C@@](O)(Cn2cc(C(=O)N3CCNCC3)c(-c3ccccc3)cc2=O)C2(CCCC2)C1", "note": "[Example 212, 1-(((S)-7-((R)-3-Cyclohexyl-2-methylpropanoyl)-10-hydroxy-7-azaspiro[4.5]decan-10-yl)methyl)-4-phenyl-5-(piperazine-1-carbonyl)pyridin-2(1H)-one]", "IC50": "< 500"}, {"molecule": "C[C@H](CC1CC1)C(=O)N1CCC(O)(Cn2cc(C(=O)N(C)C)c(-c3ccccc3)cc2=O)C2(CCCC2)C1", "note": "(stereo partly drawn) [Example 149, 1-((7-((R)-3-Cyclopropyl-2-methylpropanoyl)-10-hydroxy-7-azaspiro[4.5]decan-10-yl)methyl)-N,N-dimethyl-6-oxo-4-phenyl-1,6-dihydropyridine-3-carboxamide]", "IC50": "< 500"}, {"molecule": "CC(C)N(C)C(=O)c1cn(C[C@]2(O)CCN(C(=O)[C@H](C)CC3CCCCC3)CC2(C)C)c(=O)cc1-c1ccccc1", "note": "[Example 120, 1-(((S)-1-((R)-3-Cyclohexyl-2-methylpropanoyl)-4-hydroxy-3,3-dimethylpiperidin-4-yl)methyl)-N-isopropyl-N-methyl-6-oxo-4-phenyl-1,6-dihydropyridine-3-carboxamide]", "IC50": "< 500"}, {"molecule": "CCC(n1cnc(-c2ccccc2)cc1=O)C1(O)CCN(C(=O)[C@H](C)CC2CCCCC2)CC1", "note": "(stereo partly drawn) [Example 43, 3-((S)-1-(1-((R)-3-Cyclohexyl-2-methylpropanoyl)-4-hydroxypipendin-4-yl)propyl)-6-phenylpyrimidin-4(3H)-one and 3-((R)-1-(1-((R)-3-cyclohexyl-2-methylpropanoyl)-4-hydroxypipendin-4-yl)propyl)-6-phenylpyrimidin-4(3H)-one]", "IC50": "5000 to 50000"}, {"molecule": "CC(C)N(C)C(=O)c1cn(CC2(O)CCN(C(=O)[C@H](C)CC3CCCCC3)CC2(C)C)c(=O)cc1-c1ccccc1", "note": "(mixture of isomers) [Example 73, 1-(((R)-1-((R)-3-Cyclohexyl-2-methylpropanoyl)-4-hydroxy-3,3-dimethylpiperidin-4-yl)methyl)-N-isopropyl-N-methyl-6-oxo-4-phenyl-1,6-dihydropyridine-3-carboxamide and 1-(((S)-1-((R)-3-Cyclohexyl-2-methylpropanoyl)-4-hydroxy-3,3-dimethylpiperidin-4-yl)methyl)-N-isopropyl-N-methyl-6-oxo-4-phenyl-1,6-dihydropyridine-3-carboxamide]", "IC50": "< 500"}, {"molecule": "C[C@H](CC(F)(F)F)C(=O)N1CC[C@@](O)(Cn2cc(C(=O)N3CCOCC3)c(-c3ccccc3)cc2=O)C2(CCCC2)C1", "note": "[Example 250, 1-(((S)-10-Hydroxy-7-((R)-4,4,4-trifluoro-2-methylbutanoyl)-7-azaspiro[4.5]decan-10-yl)methyl)-5-(morpholine-4-carbonyl)-4-phenylpyridin-2(1H)-one]", "IC50": "< 500"}, {"molecule": "CN(C)C(=O)c1cn(CC2(O)CCN(C(=O)[C@@H]3C[C@@H]3c3ccccc3)CC23CCCC3)c(=O)cc1-c1ccccc1", "note": "(stereo partly drawn) [Example 174, 1-((10-Hydroxy-7-((1R,2S)-2-phenylcyclopropane-1-carbonyl)-7-azaspiro[4.5]decan-10-yl)methyl)-N,N-dimethyl-6-oxo-4-phenyl-1,6-dihydropyridine-3-carboxamide]", "IC50": "< 500"}, {"molecule": "C[C@H](CC1CCC1)C(=O)N1CC[C@@](O)(Cn2cc(C(=O)N3CCNCC3)c(-c3ccccc3F)cc2=O)C2(CCCC2)C1", "note": "[Example 224, 1-(((S)-7-((R)-3-Cyclobutyl-2-methylpropanoyl)-10-hydroxy-7-azaspiro[4.5]decan-10-yl)methyl)-4-(2-fluorophenyl)-5-(piperazine-1-carbonyl)pyridin-2(1 H)-one]", "IC50": "< 500"}, {"molecule": "C[C@H](CC1CCC1)C(=O)N1CC[C@@](O)(Cn2cc(C(=O)N3CCNCC3)c(-c3ccccc3F)cc2=O)C(C)(C)C1", "note": "[Example 236, 1-(((S)-1-((R)-3-Cyclobutyl-2-methylpropanoyl)-4-hydroxy-3,3-dimethylpiperidin-4-yl)methyl)-4-(2-fluorophenyl)-5-(piperazine-1-carbonyl)pyridin-2(1 H)-one]", "IC50": "< 500"}, {"molecule": "C[C@H](CC1CCCCC1)C(=O)N1CCC(O)(Cn2cnc(-c3ccc(CO)cc3)cc2=O)C(C)(C)C1", "note": "(stereo partly drawn) [Example 139, 3-((1-((R)-3-Cyclohexyl-2-methylpropanoyl)-4-hydroxy-3,3-dimethylpiperidin-4-yl)methyl)-6-(4-(hydroxymethyl)phenyl)pyrimidin-4(3H)-one]", "IC50": "< 500"}, {"molecule": "C[C@H](CC1CCCCC1)C(=O)N1CCC(O)(Cn2cc(C(=O)N(C)C)c(-c3cccc(CO)c3)cc2=O)C2(CCCC2)C1", "note": "(stereo partly drawn) [Example 156, 1-((7-((R)-3-Cyclohexyl-2-methylpropanoyl)-10-hydroxy-7-azaspiro[4.5]decan-10-yl)methyl)-4-(3-(hydroxymethyl)phenyl)-N,N-dimethyl-6-oxo-1,6-dihydropyridine-3-carboxamide]", "IC50": "< 500"}, {"molecule": "C[C@H](CC1CCC1)C(=O)N1CC[C@@](O)(Cn2cc(C(=O)N3CCNCC3)c(-c3ccccc3)cc2=O)C2(CCCC2)C1", "note": "[Example 215, 1-(((S)-7-((R)-3-Cyclobutyl-2-methylpropanoyl)-10-hydroxy-7-azaspiro[4.5]decan-10-yl)methyl)-4-phenyl-5-(piperazine-1-carbonyl)pyridin-2(1H)-one]", "IC50": "< 500"}, {"molecule": "CN(C)C(=O)c1cn(C[C@]2(O)CCN(C(=O)[C@H](CO)CC3CCC3)CC2(C)C)c(=O)cc1-c1ccccc1", "note": "[Example 166, 1-(((S)-1-((S)-3-Cyclobutyl-2-(hydroxymethyl)propanoyl)-4-hydroxy-3,3-dimethylpiperidin-4-yl)methyl)-N,N-dimethyl-6-oxo-4-phenyl-1,6-dihydropyridine-3-carboxamide]", "IC50": "< 500"}, {"molecule": "CN(C)C(=O)c1cn(C[C@]2(O)CCN(C(=O)[C@H](CO)CC3CCCCC3)CC2(C)C)c(=O)cc1-c1ccccc1", "note": "[Example 152, 1-(((S)-1-((S)-3-Cyclohexyl-2-(hydroxymethyl)propanoyl)-4-hydroxy-3,3-dimethylpiperidin-4-yl)methyl)-N,N-dimethyl-6-oxo-4-phenyl-1,6-dihydropyridine-3-carboxamide]", "IC50": "< 500"}, {"molecule": "C[C@H](CC1CCCCC1)C(=O)N1CCC(O)(Cn2cc(C(=O)N(C)C)c(N(C)C)cc2=O)C2(CCCC2)C1", "note": "(stereo partly drawn) [Example 145, 1-((7-((R)-3-Cyclohexyl-2-methylpropanoyl)-10-hydroxy-7-azaspiro[4.5]decan-10-yl)methyl)-4-(dimethylamino)-N,N-dimethyl-6-oxo-1,6-dihydropyridine-3-carboxamide]", "IC50": "< 500"}, {"molecule": "CN(C)C(=O)c1cn(CC2(O)CCN(C(=O)C(O)CC3CCCCC3)CC23CCCC3)c(=O)cc1-c1ccccc1", "note": "(stereo not drawn) [Example 157, 1-((7-(3-Cyclohexyl-2-hydroxypropanoyl)-10-hydroxy-7-azaspiro[4.5]decan-10-yl)methyl)-N,N-dimethyl-6-oxo-4-phenyl-1,6-dihydropyridine-3-carboxamide]", "IC50": "< 500"}, {"molecule": "COC[C@H](CC1CCCCC1)C(=O)N1CC[C@@](O)(Cn2cc(C(=O)N(C)C)c(-c3ccccc3)cc2=O)C(C)(C)C1", "note": "[Example 160, 1-(((S)-1-((S)-3-Cyclohexyl-2-(methoxymethyl)propanoyl)-4-hydroxy-3,3-dimethylpiperidin-4-yl)methyl)-N,N-dimethyl-6-oxo-4-phenyl-1,6-dihydropyridine-3-carboxamide]", "IC50": "< 500"}]}]}
